How the values were obtained:
[1] = tested on: Human immunodeficiency virus 1; assay: Antiviral activity against HIV-1 E138K mutant infected in human MT4 cells assessed as reduction in viral replication by MTT assay; type: functional, organism-based; conditions: Human immunodeficiency virus 1, E138K mutant
[2] = Selectivity index, ratio of CC50 for cytotoxicity against human MT4 cells to EC50 of Anti-HIV activity against HIV-1 IIIB infected in human MT4 cells; type: toxicity, cell-based; conditions: read-out: Ratio CC50/EC50
[3] = tested on: Human immunodeficiency virus 1; assay: Antiviral activity against HIV-1 Y181C mutant infected in human MT4 cells assessed as reduction in viral replication by MTT assay; type: functional, organism-based; conditions: Human immunodeficiency virus 1, Y181C mutant
[4] = tested on: Human immunodeficiency virus 1; assay: Antiviral activity against HIV-1 ROD infected in human MT4 cells assessed as reduction in viral replication by MTT assay; type: functional, organism-based
[5] = biological target: Human immunodeficiency virus type 1 reverse transcriptase (Human immunodeficiency virus 1, UniProt Q72547); assay: Inhibition of wild type HIV-1 Reverse transcriptase
[6] = Cytotoxicity against human MT4 cells assessed as reduction on cell growth by MTT assay; type: toxicity, cell-based
[7] = tested on: Human immunodeficiency virus 1; assay: Antiviral activity against HIV-1 Y188L mutant infected in human MT4 cells assessed as reduction in viral replication by MTT assay; type: functional, organism-based; conditions: Human immunodeficiency virus 1, Y188L mutant
[8] = tested on: Human immunodeficiency virus 1; assay: Antiviral activity against HIV-1 L100I mutant infected in human MT4 cells assessed as reduction in viral replication by MTT assay; type: functional, organism-based; conditions: Human immunodeficiency virus 1, L100I mutant
[9] = tested on: Human immunodeficiency virus 1; assay: Antiviral activity against HIV-1 K103N-Y181C mutant infected in human MT4 cells assessed as reduction in viral replication by MTT assay; type: functional, organism-based; conditions: Human immunodeficiency virus 1, K103N-Y181C mutant
[10] = tested on: Human immunodeficiency virus 1; assay: Antiviral activity against HIV-1 F227L-V106A mutant infected in human MT4 cells assessed as reduction in viral replication by MTT assay; type: functional, organism-based; conditions: Human immunodeficiency virus 1, F227L-V106A mutant
[11] = tested on: Human immunodeficiency virus 1; assay: Antiviral activity against HIV-1 K103N mutant infected in human MT4 cells assessed as reduction in viral replication by MTT assay; type: functional, organism-based; conditions: Human immunodeficiency virus 1, K103N mutant
[12] = tested on: Human immunodeficiency virus 1; assay: Antiviral activity against HIV-1 IIIB infected in human MT4 cells assessed as reduction in viral replication by MTT assay; type: functional, organism-based; conditions: Human immunodeficiency virus 1, IIIB

SMILES	EC50 [1]	selectivity ratio [2]	EC50 [3]	EC50 [4]	IC50 [5]	CC50 [6]	EC50 [7]	EC50 [8]	EC50 [9]	EC50 [10]	EC50 [11]	EC50 [12]
Cn1c(Cn2ccc(C(F)(F)F)c(Oc3ccc(-c4cc(F)cc(C#N)c4)c(F)c3)c2=O)n[nH]c1=O	1340 nM	143	12.1 µM	> 35 µM	1020 nM	105 µM	39.8 µM	1860 nM	36.6 µM	> 35 µM	2470 nM	740 nM
Cn1c(Cn2ccc(C(F)(F)F)c(Oc3ccc(-c4cccc(C#N)c4)c(F)c3F)c2=O)n[nH]c1=O	1600 nM	50.8	8.36 µM	> 35 µM	1310 nM	48.8 µM	> 35 µM	1590 nM	> 35 µM	> 35 µM	2870 nM	960 nM
Cc1cc(Oc2c(C(F)(F)F)ccn(Cc3n[nH]c(=O)n3C)c2=O)ccc1-c1ccc(C#N)cc1	3680 nM	24	8.83 µM	> 35 µM	4200 nM	52.1 µM	> 35 µM	2330 nM	> 35 µM	> 35 µM	8350 nM	2170 nM
Cn1c(Cn2ccc(C(F)(F)F)c(Oc3ccc(-c4ccc(C#N)cc4)cc3F)c2=O)n[nH]c1=O	7060 nM	8.72	48.3 µM	> 35 µM	6350 nM	41.8 µM	> 35 µM	4600 nM	> 35 µM	> 35 µM	6130 nM	4800 nM
Cn1c(Cn2ccc(C(F)(F)F)c(Oc3cc(C#N)cc(-c4ccc(C#N)cc4)c3)c2=O)n[nH]c1=O	82 nM	3110	0.45 µM	> 35 µM	520 nM	142 µM	0.61 µM	70 nM	2 µM	> 35 µM	78 nM	46 nM
Cn1c(Cn2ccc(C(F)(F)F)c(Oc3ccc(-c4cc(F)cc(C#N)c4)cc3F)c2=O)n[nH]c1=O	4020 nM	20.6	38.8 µM	> 35 µM	5980 nM	69.2 µM	41.5 µM	3720 nM	> 35 µM	38.9 µM	8330 nM	3360 nM
Cc1cc(Oc2c(C(F)(F)F)ccn(Cc3n[nH]c(=O)n3C)c2=O)ccc1-c1ccc(F)c(C#N)c1	1370 nM	70.6	6.91 µM	> 35 µM	1460 nM	42.5 µM	> 35 µM	1580 nM	> 35 µM	> 35 µM	2330 nM	600 nM
Cn1c(Cn2ccc(C(F)(F)F)c(Oc3ccc(-c4cc(F)cc(C#N)c4)cc3Cl)c2=O)n[nH]c1=O	3290 nM	5.71	7.14 µM	> 35 µM	4370 nM	19.3 µM	> 35 µM	2410 nM	> 35 µM	> 35 µM	3290 nM	3380 nM
Cn1c(Cn2ccc(C(F)(F)F)c(Oc3c(F)cc(-c4ccc(F)c(C#N)c4)cc3F)c2=O)n[nH]c1=O	2090 nM	30.7	4.69 µM	> 35 µM	1650 nM	18.9 µM	> 35 µM	1610 nM	> 35 µM	> 35 µM	1200 nM	620 nM
Cn1c(Cn2ccc(C(F)(F)F)c(Oc3c(F)cc(-c4cc(F)cc(C#N)c4)cc3F)c2=O)n[nH]c1=O	5200 nM	10.2	> 35 µM	> 35 µM	3250 nM	16.6 µM	> 35 µM	2970 nM	> 35 µM	> 35 µM	2070 nM	1640 nM
Cn1c(Cn2ccc(C(F)(F)F)c(Oc3ccc(-c4ccc(F)c(C#N)c4)cc3F)c2=O)n[nH]c1=O	7720 nM	12.8	39.6 µM	> 35 µM	7000 nM	65.5 µM	44.8 µM	7270 nM	> 35 µM	> 35 µM	7270 nM	5120 nM
Cn1c(Cn2ccc(C(F)(F)F)c(Oc3c(F)cc(-c4cccc(C#N)c4)cc3F)c2=O)n[nH]c1=O	3060 nM	18.7	8.64 µM	> 35 µM	2570 nM	21.2 µM	> 35 µM	1850 nM	> 35 µM	> 35 µM	2240 nM	1140 nM
Cn1c(Cn2ccc(C(F)(F)F)c(Oc3c(F)cc(-c4ccc(C#N)cc4)cc3F)c2=O)n[nH]c1=O	1460 nM	29.5	4.97 µM	> 35 µM	3130 nM	21.2 µM	> 35 µM	1690 nM	> 35 µM	> 35 µM	1140 nM	720 nM
Cc1cc(Oc2c(C(F)(F)F)ccn(Cc3n[nH]c(=O)n3C)c2=O)ccc1-c1cccc(F)c1	4000 nM	20.1	> 35 µM	> 35 µM	4710 nM	55.9 µM	> 35 µM	2140 nM	> 35 µM	> 35 µM	10900 nM	2770 nM
COc1cc(-c2ccc(C#N)cc2)ccc1Oc1c(C(F)(F)F)ccn(Cc2n[nH]c(=O)n2C)c1=O	19500 nM	17.6	21.3 µM	> 35 µM	24600 nM	142 µM	> 35 µM	3770 nM	> 35 µM	> 35 µM	13000 nM	8020 nM
Cn1c(Cn2ccc(C(F)(F)F)c(Oc3cc(C#N)cc(-c4cccc(C#N)c4)c3)c2=O)n[nH]c1=O	26 nM	4500	0.12 µM	> 35 µM	210 nM	101 µM	0.36 µM	16 nM	0.26 µM	> 35 µM	26 nM	23 nM
Cc1cc(-c2cccc(F)c2)ccc1Oc1c(C(F)(F)F)ccn(Cc2n[nH]c(=O)n2C)c1=O	3990 nM	5.2	> 35 µM	> 35 µM	5440 nM	26.7 µM	> 35 µM	3640 nM	> 35 µM	> 35 µM	2590 nM	5140 nM
Cn1c(Cn2ccc(C(F)(F)F)c(Oc3ccc(-c4cccc(F)c4)c(F)c3)c2=O)n[nH]c1=O	2160 nM	36.4	28.6 µM	> 35 µM	2330 nM	51.5 µM	> 35 µM	1520 nM	> 35 µM	> 35 µM	4390 nM	1420 nM
Cn1c(Cn2ccc(C(F)(F)F)c(Oc3ccc(-c4cccc(C#N)c4)c(F)c3)c2=O)n[nH]c1=O	800 nM	424	4.84 µM	> 35 µM	450 nM	104 µM	46.3 µM	700 nM	30.6 µM	> 35 µM	1220 nM	250 nM
Cc1ccc(-c2cc(C#N)cc(Oc3c(C(F)(F)F)ccn(Cc4n[nH]c(=O)n4C)c3=O)c2)cc1	150 nM	> 1150	0.21 µM	> 35 µM	1530 nM	> 267 µM	1.66 µM	97 nM	5.13 µM	> 35 µM	540 nM	230 nM
Cc1cc(-c2ccc(C#N)cc2)ccc1Oc1c(C(F)(F)F)ccn(Cc2n[nH]c(=O)n2C)c1=O	2420 nM	21.7	6.26 µM	> 35 µM	4800 nM	33.4 µM	> 35 µM	1630 nM	6.55 µM	> 35 µM	1650 nM	1540 nM
Cn1c(Cn2ccc(C(F)(F)F)c(Oc3cc(C#N)cc(-c4cc(F)cc(C#N)c4)c3)c2=O)n[nH]c1=O	62 nM	2810	0.18 µM	> 35 µM	170 nM	84.4 µM	0.88 µM	50 nM	0.42 µM	> 35 µM	26 nM	30 nM
